The values below come from patent US10647747B2, “Cyclosporin derivatives and uses thereof” (S&T Global Inc., priority 2010, dated 2020).

Like-named read-outs stand apart in the source and are kept apart here. *1 amine or outer side, *2 acyl side, *3 side chain or, on linkers, in order; H or OH if unused. Where a SMILES comes first, the peptide text is derived from it. [ ]: non-standard residue; d: D form. The star is where a group is joined. X10 = CN(C(CC(C)(C)OCc1ccccc1)C(=O)[*:2])[*:1]; X3 = CC=CCC(C)C(O)C(C(=O)[*:2])N(C)[*:1]; X9 = C=CCOC(C)(C)CC(C(=O)[*:2])N(C)[*:1]; X13 = CCN(CC)CCCSC(C(=O)[*:2])N(C)[*:1]; X7 = CN(C(SCCCN1CCOCC1)C(=O)[*:2])[*:1]; NMeI = CC[CH](C)[CH](NC)C(=O)O; NMeL = CN[CH](CC(C)C)C(=O)O; NMeV = CN[CH](C(=O)O)C(C)C; Et2NCH2CH2 = CCN(CC)CC*; NMeC = CN[CH](CS)C(=O)O; Abu = CC[CH](N)C(=O)O

This test has as its system HCV replicon in cell line ET (luc-ubi-neo/ET), Huh7 human hepatoma. The experiment in a line: HCV subgenomic replicon assay, luciferase end point. Type of test: cell-based. A general note: A replicon is a self-replicating genome or part of one, used to study replication in cells.
The mark [1] stands for this setting: HCV subgenomic replicon, cell line ET (luc-ubi-neo/ET) Huh7, luciferase end point, read-out: Antiviral activity EC50.
Where [2] appears, read: Table 13, HCV replicon luciferase, read-out: Antiviral activity EC50.
Setting [3] is: Hepatitis C virus, Huh-7, read-out: Antiviral activity EC50, Table 12, HCV replicon luciferase.

The term EC50 denotes the concentration needed to bring the measured effect to its halfway point.

For the compound `C/C=C/C[C@@H](C)[C@@H](O)[C@H]1C(=O)N[C@@H](CC)C(=O)N(C)[C@H](COCCCN2CCOCC2)C(=O)N(C)[C@@H](CC(C)(C)O)C(=O)N[C@@H](C(C)C)C(=O)N(C)[C@@H](CC(C)C)C(=O)N[C@@H](C)C(=O)N[C@H](C)C(=O)N(C)[C@@H](CC(C)C)C(=O)N(C)[C@@H](CC(C)C)C(=O)N(C)[C@@H](C(C)C)C(=O)N1C` [[(R)-(3-(N-Morpholino)propoxy)methyl-Sar]-3-[(γ-hydroxy)-NMeLeu]-4-cyclosporin], the EC50 (Table 14, HCV replicon luciferase, read-out: Antiviral activity EC50) amounted to 40 nM.

Take `C/C=C/C[C@@H](C)[C@@H](O)[C@H]1C(=O)N[C@@H](CC)C(=O)N(C)[C@H](COCCCN2CCCCC2)C(=O)N(C)[C@@H](CC(C)(C)O)C(=O)N[C@@H](C(C)C)C(=O)N(C)[C@@H](CC(C)C)C(=O)N[C@@H](C)C(=O)N[C@H](C)C(=O)N(C)[C@@H](CC(C)C)C(=O)N(C)[C@@H](CC(C)C)C(=O)N(C)[C@@H](C(C)C)C(=O)N1C` [[(R)-(3-(N-Piperidinyl)propoxy)methyl-Sar]-3-[(γ-hydroxy)-N-MeLeu]-4-cyclosporin]: under setting [1], the EC50 amounted to 150 nM.

As to `CC=CCC(C)C(O)C1C(=O)NC(CC)C(=O)N(C)C(SCCCN(CC)CC)C(=O)N(C)C(C(C)CC)C(=O)NC(C(C)C)C(=O)N(C)C(CC(C)C)C(=O)NC(C)C(=O)NC(C)C(=O)N(C)C(CC(C)C)C(=O)N(C)C(CC(C)C)C(=O)N(C)C(C(C)C)C(=O)N1C` [[(S)-3-(N,N-Diethylamino)propylthio-Sar]-3-[N-MeIle]-4-cyclosporin] (cyclo([X3][Abu][X13][NMeI]V[NMeL]AA[NMeL][NMeL][NMeV]); configuration not given here), the concentration for a half-maximal effect (EC50) under setting [1] was found to be 80 nM.

For the compound `CC=CCC(C)C(O)C1C(=O)NC(CC)C(=O)N(C)C(SCCCN(CC)CC)C(=O)N(C)C(C(C)C)C(=O)NC(C(C)C)C(=O)N(C)C(CC(C)C)C(=O)NC(C)C(=O)NC(C)C(=O)N(C)C(CC(C)C)C(=O)N(C)C(CC(C)C)C(=O)N(C)C(C(C)C)C(=O)N1C` [[(S)-3-(N,N-Diethylamino)propylthio-Sar]-3-[N-MeVal]-4-cyclosporin] (cyclo([X3][Abu][X13][NMeV]V[NMeL]AA[NMeL][NMeL][NMeV]); configuration not given here), the EC50 under setting [1] worked out at 70 nM.

Take `C=CCOC(C)(C)CC1C(=O)NC(C(C)C)C(=O)N(C)C(CC(C)C)C(=O)NC(C)C(=O)NC(C)C(=O)N(C)C(CC(C)C)C(=O)N(C)C(CC(C)C)C(=O)N(C)C(C(C)C)C(=O)N(C)C(C(O)C(C)CC=CC)C(=O)NC(CC)C(=O)N(C)C(SCCCN2CCOCC2)C(=O)N1C` [[(S)-3-(N-Morpholino)propylthio-Sar]-3-[(γ-allyloxy)-N-MeLeu]-4-cyclosporin] (cyclo([X3][Abu][X7][X9]V[NMeL]AA[NMeL][NMeL][NMeV]); configuration not given here): the EC50 under setting [2] was 150 nM.

Consider `CC=CCC(C)C(O)C1C(=O)NC(CC)C(=O)N(C)C(SCCCN2CCOCC2)C(=O)N(C)C(CC(C)(C)O)C(=O)NC(C(C)C)C(=O)N(C)C(CC(C)C)C(=O)NC(C)C(=O)NC(C)C(=O)N(C)C(CC(C)C)C(=O)N(C)C(CC(C)C)C(=O)N(C)C(C(C)C)C(=O)N1C` [[(S)-3-(N-Morpholino)propylthio-Sar]-3-[(γ-hydroxy)-N-MeLeu]-4-cyclosporin], for which the EC50 under setting [2] was determined as 50 nM.

For the compound `CC=CCC(C)C(O)C1C(=O)NC(CC)C(=O)N(C)C(SCCCN2CCOCC2)C(=O)N(C)C(CC(C)(C)OC)C(=O)NC(C(C)C)C(=O)N(C)C(CC(C)C)C(=O)NC(C)C(=O)NC(C)C(=O)N(C)C(CC(C)C)C(=O)N(C)C(CC(C)C)C(=O)N(C)C(C(C)C)C(=O)N1C` [[(S)-3-(N-Morpholino)propylthio-Sar]-3-[(γ-methoxy)-N-MeLeu]-4-cyclosporin], under setting [2], the EC50 is 60 nM.

Turning to `CC=CCC(C)C(O)C1C(=O)NC(CC)C(=O)N(C)C(CSCCN(CC)CC)C(=O)N(C)C(C(C)CC)C(=O)NC(C(C)C)C(=O)N(C)C(CC(C)C)C(=O)NC(C)C(=O)NC(C)C(=O)N(C)C(CC(C)C)C(=O)N(C)C(CC(C)C)C(=O)N(C)C(C(C)C)C(=O)N1C` [[(S)-(2-(N,N-Diethylamino)ethylthio)methyl-Sar]-3-[N-MeIle]-4-cyclosporin] (cyclo([X3][Abu][NMeC](Et2NCH2CH2)[NMeI]V[NMeL]AA[NMeL][NMeL][NMeV]); configuration not given here), the EC50 under setting [1] was found to be 100 nM.

As for `CC=CCC(C)C(O)C1C(=O)NC(CC)C(=O)N(C)C(CSCCN(CC)CC)C(=O)N(C)C(C(C)C)C(=O)NC(C(C)C)C(=O)N(C)C(CC(C)C)C(=O)NC(C)C(=O)NC(C)C(=O)N(C)C(CC(C)C)C(=O)N(C)C(CC(C)C)C(=O)N(C)C(C(C)C)C(=O)N1C` [[(S)-(2-(N,N-Diethylamino)ethylthio)methyl-Sar]-3-[N-MeVal]-4-cyclosporin] (cyclo([X3][Abu][NMeC](Et2NCH2CH2)[NMeV]V[NMeL]AA[NMeL][NMeL][NMeV]); configuration not given here), the EC50 under setting [1] amounted to 140 nM.

Take `CC=CCC(C)C(O)C1C(=O)NC(CC)C(=O)N(C)C(SCCCN2CCOCC2)C(=O)N(C)C(CC(C)(C)OCc2ccccc2)C(=O)NC(C(C)C)C(=O)N(C)C(CC(C)C)C(=O)NC(C)C(=O)NC(C)C(=O)N(C)C(CC(C)C)C(=O)N(C)C(CC(C)C)C(=O)N(C)C(C(C)C)C(=O)N1C` [[(S)-(3-(N-Morpholino)propylthio-Sar]-3-[(γ-benzyloxy)-N-MeLeu]-4-cyclosporin] (cyclo([X3][Abu][X7][X10]V[NMeL]AA[NMeL][NMeL][NMeV]); configuration not given here): under setting [2], the EC50 was 280 nM.

In the case of `CC=CCC(C)C(O)C1C(=O)NC(CC)C(=O)N(C)C(SCCCN2CCOCC2)C(=O)N(C)C(C(C)C)C(=O)NC(C(C)C)C(=O)N(C)C(CC(C)C)C(=O)NC(C)C(=O)NC(C)C(=O)N(C)C(CC(C)C)C(=O)N(C)C(CC(C)C)C(=O)N(C)C(C(C)C)C(=O)N1C` [[(S)-(3-(N-Morpholino)propylthio-Sar]-3-[N-MeVal]-4-cyclosporin] (cyclo([X3][Abu][X7][NMeV]V[NMeL]AA[NMeL][NMeL][NMeV]); configuration not given here), the EC50 under setting [1] was determined as 110 nM.

For `C/C=C/C[C@@H](C)[C@@H](O)[C@H]1C(=O)N[C@@H](CC)C(=O)N(C)[C@H](CSCCCCO)C(=O)N(C)[C@@H](CC(C)(C)O)C(=O)N[C@@H](C(C)C)C(=O)N(C)[C@@H](CC(C)C)C(=O)N[C@@H](C)C(=O)N[C@H](C)C(=O)N(C)[C@@H](CC(C)C)C(=O)N(C)[C@@H](CC(C)C)C(=O)N(C)[C@@H](C(C)C)C(=O)N1C` [[(S)-(4-Hydroxylbutylthio)methyl-Sar]-3-[(γ-hydroxy)-N-MeLeu]-4-cyclosporin], the EC50 (Table 16, HCV replicon luciferase, read-out: Antiviral activity EC50) was 20 nM.

`CC=CCC(C)C(O)C1C(=O)NC(CC)C(=O)N(C)CC(=O)N(C)C(CC(C)(C)OC)C(=O)NC(C(C)C)C(=O)N(C)C(CC(C)C)C(=O)NC(C)C(=O)NC(C)C(=O)N(C)C(CC(C)C)C(=O)N(C)C(CC(C)C)C(=O)N(C)C(C(C)C)C(=O)N1C` (centres unmarked) [[(γ-Methoxy)-N-MeLeu]-4-cyclosporin]: the EC50 under setting [2] is 180 nM.

Regarding `CCCCC(C)C(O)C1C(=O)NC(CC)C(=O)N(C)CC(=O)N(C)C(CC(C)(C)OC)C(=O)NC(C(C)C)C(=O)N(C)C(CC(C)C)C(=O)NC(C)C(=O)NC(C)C(=O)N(C)C(CC(C)C)C(=O)N(C)C(CC(C)C)C(=O)N(C)C(C(C)C)C(=O)N1C` (centres unmarked) [[(γ-Methoxy)-N-MeLeu]-4-dihydrocyclosporin], the EC50 under setting [2] was found to be 350 nM.

With `C/C=C/C[C@@H](C)[C@@H](O)[C@H]1C(=O)N[C@@H](CC)C(=O)N(C)CC(=O)N(C)[C@@H](CC(C)(C)OCSC)C(=O)N[C@@H](C(C)C)C(=O)N(C)[C@@H](CC(C)C)C(=O)N[C@@H](C)C(=O)N[C@H](C)C(=O)N(C)[C@@H](CC(C)C)C(=O)N(C)[C@@H](CC(C)C)C(=O)N(C)[C@@H](C(C)C)C(=O)N1C` [[(γ-Methylthio)methoxy-N-MeLeu]-4-cyclospori], under setting [2], the EC50 amounted to 400 nM.

With `C/C=C/C[C@@H](C)[C@@H](O)[C@H]1C(=O)N[C@@H](CC)C(=O)N(C)[C@H](C)C(=O)N(CC)[C@@H](C(C)C)C(=O)N[C@@H](C(C)C)C(=O)N(C)[C@@H](CC(C)C)C(=O)N[C@@H](C)C(=O)N[C@H](C)C(=O)N(C)[C@@H](CC(C)C)C(=O)N(C)[C@@H](CC(C)C)C(=O)N(C)[C@@H](C(C)C)C(=O)N1C` [[D-N-MeAla]-3-[N-EtVal]-4-cyclosporin, reference compound], the EC50 is, setting by setting: (Hepatitis C virus, Huh-7, HCV subgenomic replicon, cell line ET (luc-ubi-neo/ET) Huh7, luciferase end point, read-out: Antiviral activity EC50) 70 nM; (Hepatitis C virus, Huh-7, Table 16, HCV replicon luciferase, read-out: Antiviral activity EC50) 50 nM.

With `C/C=C/C[C@@H](C)[C@@H](O)[C@H]1C(=O)N[C@@H](CC)C(=O)N(C)CC(=O)N(C)[C@@H]([C@@H](C)CC)C(=O)N[C@@H](C(C)C)C(=O)N(C)[C@@H](CC(C)C)C(=O)N[C@@H](C)C(=O)N[C@H](C)C(=O)N(C)[C@@H](CC(C)C)C(=O)N(C)[C@@H](CC(C)C)C(=O)N(C)[C@@H](C(C)C)C(=O)N1C` [[N-MeIle]-4-cyclosporin (SDZ-NIM-811), N-MeIle-4-Cyclosporin, reference compound], the concentration for a half-maximal effect (EC50) under setting [3] worked out at 150 nM.

As for `CC=CCC(C)C(O)C1C(=O)NC(CC)C(=O)N(C)CC(=O)N(C)C(CO)C(=O)NC(C(C)C)C(=O)N(C)C(CC(C)C)C(=O)NC(C)C(=O)NC(C)C(=O)N(C)C(CC(C)C)C(=O)N(C)C(CC(C)C)C(=O)N(C)C(C(C)C)C(=O)N1C` (centres unmarked) [[N-MeSer]-4-cyclosporin], the concentration giving a half-maximal response (EC50) under setting [2] turned out to be 560 nM.

Consider `C/C=C/C[C@@H](C)[C@@H](O)[C@H]1C(=O)N[C@@H](CC)C(=O)N(C)CC(=O)N(C)[C@@H](C(C)C)C(=O)N[C@@H](C(C)C)C(=O)N(C)[C@@H](CC(C)C)C(=O)N[C@@H](C)C(=O)N[C@H](C)C(=O)N(C)[C@@H](CC(C)C)C(=O)N(C)[C@@H](CC(C)C)C(=O)N(C)[C@@H](C(C)C)C(=O)N1C` [[N-MeVal]-4-cyclosporin (SDZ 220-384), N-MeVal-4-Cyclosporin, reference compound], for which the EC50 under setting [3] amounted to 170 nM.
